Test results from patent publication US7160888B2, “[1,8]naphthyridin-2-ones and related compounds for the treatment of schizophrenia” (Warner Lambert Company LLC, priority 2003, dated 2007).

Molecular target: D2 receptor (Homo sapiens, UniProt P14416)
Assay: [3H]Thymidine uptake assay for D2 intrinsic activity
Assay type: cell-based
Details: test compound 1 μM, 1 μM Quinpirole = 100% intrinsic activity
Protocol: D2 intrinsic activity of title compounds of the Examples, below, was determined using the [^3H]thymidine uptake assay described below.
[^3H]Thymidine Uptake Assay for D2 Intrinsic Activity
Cells are serum deprived by washing twice with 200 μl of serum-free media. 90 μl serum-free media was added to each well. The plates ware incubated for two to three hours. 10 μl of serum-containing media, as a positive control, vehicle (serum-free media), negative control (an antagonist) or test compounds and standards (10 μl of a 10 μM solution for a final concentration of 1 μM) in serum-free media were added to wells. The plates are returned to the incubator. Eighteen hours later [^3H]thymidine is added (0.5 μCi/well in 10 μl of serum-free media) and the plates are returned to the incubator. […] The plates are returned to the incubator, once again. One hour later the assay is terminated by rapid filtration through Whatman GF/C glass fiber filters. Filters are washed four times with 500 ml of 50 mM Tris-HCl pH 7.0 buffer, for example, using a Brandel MLR-96T cell harvester. […] Intrinsic activity is defined as total uptake (1 μM Quinpirole) minus serum-free media (no uptake). Test compounds are compared to 1 μM Quinpirole (full DA agonist), which was classified as 100% intrinsic activity.

Sequence of D2 receptor (P14416 whole entry): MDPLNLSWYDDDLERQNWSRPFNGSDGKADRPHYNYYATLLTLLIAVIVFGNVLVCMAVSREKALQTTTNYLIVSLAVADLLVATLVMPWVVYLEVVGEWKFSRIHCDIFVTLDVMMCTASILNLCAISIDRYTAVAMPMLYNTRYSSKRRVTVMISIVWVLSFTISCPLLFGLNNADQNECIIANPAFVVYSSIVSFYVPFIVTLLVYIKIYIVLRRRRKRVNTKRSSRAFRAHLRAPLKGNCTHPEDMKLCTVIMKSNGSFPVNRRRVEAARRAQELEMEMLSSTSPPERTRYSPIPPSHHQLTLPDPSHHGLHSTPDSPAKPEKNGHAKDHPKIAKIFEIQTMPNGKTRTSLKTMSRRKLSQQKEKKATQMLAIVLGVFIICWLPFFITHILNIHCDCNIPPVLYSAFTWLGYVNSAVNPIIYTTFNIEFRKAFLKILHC

| Compound | Emax at 1 µM (Table 1) | Emax at 1 µM (Table 2) |
| --- | --- | --- |
| O=C1CCc2cnc(OCCCCN3CCN(c4cccc5c4CCC5)CC3)cc2N1 [Example I5, 7-[4-(4-Indan-4-yl-piperazin-1-yl)-butoxy]-3,4-dihydro-1H-[1,6]naphthyridin-2-one] | 23% | – |
| O=C1CCc2ccc(OCCCCN3CCN(c4cccc5ncccc45)CC3)nc2N1 [Example A35′, 7-[4-(4-Quinolin-5-yl-piperazin-1-yl)-butoxy]-3,4-dihydro-1H-[1,8]naphthyridin-2-one] | – | 20% |
| Cc1cc(N2CCN(CCCCOc3ccc4ccc(=O)[nH]c4n3)CC2)c(Cl)cc1F [Example B7, 7-{4-[4-(2-Chloro-4-fluoro-5-methyl-phenyl)-piperazin-1-yl]-butoxy}-1H-[1,8]naphthyridin-2-one] | 28% | – |
| O=c1ccc2ccc(OCCCCN3CCN(c4ncccn4)CC3)nc2[nH]1 [Example B30, 7-[4-(4-Pyrimidin-2-yl-piperazin-1-yl)-butoxy]-1H-[1,8]naphthyridin-2-one] | 83% | – |
| O=c1[nH]c2nc(OCCCCN3CCN(c4cccc5ccccc45)CC3)ccc2cc1F [Example D10, 3-Fluoro-7-[4-(4-naphthalen-1-yl-piperazin-1-yl)-butoxy]-1H-[1,8]naphthyridin-2-one] | 22% | – |
| O=C1CCc2cnc(OCCCCN3CCN(c4cccc5c4OCC5)CC3)cc2N1 [Example H2′, 7-{4-[4-(2,3-Dihydro-benzofuran-7-yl)-piperazin-1-yl]-butoxy}-3,4-dihydro-1H-[1,6]naphthyridin-2-one] | – | 15% |
| CC1(C)OC(=O)Nc2cc(CCCCCN3CCN(c4cccc(Cl)c4Cl)CC3)ncc21 [Example I19, 7-{5-[4-(2,3-Dichloro-phenyl)-piperazin-1-yl]-pentyl}-4,4-dimethyl-1,4-dihydro-pyrido[4,3-d][1,3]oxazin-2-one] | 22% | – |
| Cc1nc(OCCCCN2CCN(c3cccc4ccc(F)cc34)CC2)nc2[nH]c(=O)ccc12 [Example H10, 2-{4-[4-(7-Fluoro-naphthalen-1-yl)-piperazin-1-yl]-butoxy}-4-methyl-8H-pyrido[2,3-d]pyrimidin-7-one] | 44% | – |
| CC1(C)CC(=O)Nc2nc(OCCCCN3CCN(c4cccc5cccnc45)CC3)ccc21 [Example C1′, 4,4-Dimethyl-7-[4-(4-quinolin-8-yl-piperazin-1-yl)-butoxy]-3,4-dihydro-1H-[1,8]naphthyridin-2-one] | – | 38% |
| O=c1ccc2cnc(OCCCCN3CCN(c4cccc5c4CCCC5)CC3)cc2[nH]1 [Example I14, 7-{4-[4-(5,6,7,8-Tetrahydro-naphthalen-1-yl)-piperazin-1-yl]-butoxy}-1H-[1,6]naphthyridin-2-one] | 24% | – |
| O=C1CCc2ccc(OCCCCN3CCN(c4cccc5c4NC(=O)CC5)CC3)nc2N1 [Example A48′, 7-{4-[4-(2-Oxo-1,2,3,4-tetrahydro-quinolin-8-yl)-piperazin-1-yl]-butoxy}-3,4-dihydro-1H-[1,8]naphthyridin-2-one] | – | 34% |
| CC1(C)CC(=O)Nc2nc(OCCCCN3CCN(c4cccc5c4NC(=O)CC5)CC3)ccc21 [Example C3′, 4,4-Dimethyl-7-{4-[4-(2-oxo-1,2,3,4-tetrahydro-quinolin-8-yl)-piperazin-1-yl]-butoxy}-3,4-dihydro-1H-[1,8]naphthyridin-2-one] | – | 19% |
| CC(=O)Nc1ccc2cccc(N3CCN(CCCCOc4ccc5c(n4)NC(=O)CC5)CC3)c2c1 [Example A84, N-(8-{4-[4-(7-Oxo-5,6,7,8-tetrahydro-[1,8]naphthyridin-2-yloxy)-butyl]-piperazin-1-yl}-naphthalen-2-yl)-acetamide] | 11% | – |
| COc1c(Cl)cccc1N1CCN(CCCCOc2ccc3c(n2)NC(=O)CC3)CC1 [Example A17, 7-{4-[4-(3-Chloro-2-methoxy-phenyl)-piperazin-1-yl]-butoxy}-3,4-dihydro-1H-[1,8]naphthyridin-2-one] | 15% | – |
| N#Cc1ccc2cccc(N3CCN(CCCCOc4ccc5ccc(=O)[nH]c5n4)CC3)c2c1 [Example B67, 8-{4-[4-(7-Oxo-7,8-dihydro-[1,8]naphthyridin-2-yloxy)-butyl]-piperazin-1-yl}-naphthalene-2-carbonitrile] | 39% | – |
| O=C1CCc2cnc(OCCCCN3CCN(c4cccc5ccccc45)CC3)c(Cl)c2N1 [Example I10, 8-Chloro-7-[4-(4-naphthalen-1-yl-piperazin-1-yl)-butoxy]-3,4-dihydro-1H-[1,6]naphthyridin-2-one] | 21% | – |
| O=c1ccc2ccc(OCCCCN3CCN(c4cccc5cccnc45)CC3)nc2[nH]1 [Example B21′, 7-[4-(4-Quinolin-8-yl-piperazin-1-yl)-butoxy]-1H-[1,8]naphthyridin-2-one] | – | 18% |
| Cc1nc(OCCCCN2CCN(c3cccc4c3NC(=O)CC4)CC2)nc2[nH]c(=O)ccc12 [Example G14′, 4-Methyl-2-{4-[4-(2-oxo-1,2,3,4-tetrahydro-quinolin-8-yl)-piperazin-1-yl]-butoxy}-8H-pyrido[2,3-d]pyrimidin-7-one] | – | 44% |
| COc1cccc(N2CCN(CCCCOc3ccc4c(n3)NC(=O)CC4)CC2)c1OC [Example A19, 7-{4-[4-(2,3-Dimethoxy-phenyl)-piperazin-1-yl]-butoxy}-3,4-dihydro-1H-[1,8]naphthyridin-2-one] | 10% | – |
| O=c1ccc2ccc(OCCCCN3CCN(c4cccc5c4OCCCO5)CC3)nc2[nH]1 [Example B20′, 7-{4-[4-(3,4-Dihydro-2H-benzo[b][1,4]dioxepin-6-yl)-piperazin-1-yl]-butoxy}-1H-[1,8]naphthyridin-2-one] | – | 16% |
| O=C1CCc2ccc(CCCCCN3CCN(c4cccc(C5CC5)n4)CC3)nc2N1 [Example C18, 7-{5-[4-(6-Cyclopropyl-pyridin-2-yl)-piperazin-1-yl]-pentyl}-3,4-dihydro-1H-[1,8]naphthyridin-2-one] | 34% | – |
| CCc1cccc(N2CCN(CCCCOc3nc(C)c4ccc(=O)[nH]c4n3)CC2)n1 [Example H7, 2-{4-[4-(6-Ethyl-pyridin-2-yl)-piperazin-1-yl]-butoxy}-4-methyl-8H-pyrido[2,3-d]pyrimidin-7-one] | 46% | – |
| O=c1ccc2ccc(OCCCCN3CCN(c4cccc5c(F)cccc45)CC3)nc2[nH]1 [Example B51, 7-{4-[4-(5-Fluoro-naphthalen-1-yl)-piperazin-1-yl]-butoxy}-1H-[1,8]naphthyridin-2-one] | 36% | – |
| O=C1CCc2ccc(OCCCCN3CCN(c4cccc5c4OCCO5)CC3)nc2N1 [Example A16′, 7-{4-[4-(2,3-Dihydro-benzo[1,4]dioxin-5-yl)-piperazin-1-yl]-butoxy}-3,4-dihydro-1H-[1,8]naphthyridin-2-one] | – | 15% |
| CCc1ccccc1N1CCN(CCCCOc2ccc3c(n2)NC(=O)CC3)CC1 [Example A35, 7-{4-[4-(2-Ethyl-phenyl)-piperazin-1-yl]-butoxy}-3,4-dihydro-1H-[1,8]naphthyridin-2-one] | 24% | – |
| O=c1ccc2cnc(OCCCCN3CCN(c4cccc5c4OCC5)CC3)cc2[nH]1 [Example H6′, 7-{4-[4-(2,3-Dihydro-benzofuran-7-yl)-piperazin-1-yl]-butoxy}-1H-[1,6]naphthyridin-2-one] | – | 21% |
| O=C1CCc2ccc(OCCCCN3CCN(c4cc(F)cc5c4CCCC5)CC3)nc2N1 [Example A50, 7-{4-[4-(3-Fluoro-5,6,7,8-tetrahydro-naphthalen-1-yl)-piperazin-1-yl]-butoxy}-3,4-dihydro-1H-[1,8]naphthyridin-2-one] | 14% | – |
